Data from patent US10104882B2, “Methods and compositions for preventing and treating electrophile-mediated toxicities” (priority 2013, dated 2018).
Entries after “also recorded” stand apart in the source; their conditions may differ. Read-outs that look alike come from different tables or passages of the source.

Experiments:
[1] = Prevention of NAPQI-induced GSH sulfhydryl loss by 1,3-dicarbonyl compounds (in chemico); type: biochemical; details: for prevention of NAPQI-induced thiol loss: equimolar concentrations (50 μM), pH 7.4
From the text: FIG. 3. […] Numbers in parentheses are respective IC50 values.
FIG. 4. […] Numbers in parentheses are respective IC50 values.
(§1) However, acrolein and other electrophiles used in this research are α,β-unsaturated carbonyls, whereas NAPQI and pBQ are quinone derivatives. […] Although both compounds are relatively acidic (low pKa values), thiol protection is limited since the corresponding adduct reactions involving the enolates of these acids are likely to be reversible. […] 2-ACP was the most protective 1,3-dicarbonyl compound tested in this and other studies^54 and was, therefore, the focus of subsequent research. […] 2-ACP (50 μM) was also effective at protecting thiol loss induced by pBQ, the degradation product of NAPQI (data not shown). […] These electrophiles target nucleophilic sulfhydryl groups that play critical roles in protein function and cellular redox balance.

[2] = cited from earlier work; for effect on rate of acrolein-induced sulfhydryl (thiol) loss: physiological conditions (pH 7.4); for thiol protection against acrolein-induced thiol loss: pH 9.0
[3] = tested on: Rat striatal synaptosomes; details: acrolein 1-1000 μM with cytoprotectant 500 μM; cited from earlier work
[4] = Electrophile concentration-dependent loss of GSH sulfhydryl groups (in chemico); type: biochemical; set-up: Log IC50: unit not given here; details: for Log IC50: logarithmic value, electrophile concentration that causes 50% loss of the GSH sulfhydryl group
From the text: as §1

[5] = Ionization parameters (pKa, % anion); type: physicochemical; details: for fraction present as nucleophilic enolate/thiolate anion: physiological pH (7.4); for relative enolate concentration in solution: pH 7 / neutral conditions
MN9D cells [6] = details: cited from earlier work; for protection from acrolein-induced cell loss: pre-incubation
male C57 BL mice = assay: Mouse model of oral acetaminophen (APAP) overdose hepatotoxicity/lethality; type: in vivo; details: for changes in hepatic parameters, compound alone: no APAP
Description: FIG. 7A-7B. […] Hepatoprotectants were administered 20 mins before (−20), 20 mins after (+20) or 60 mins after (+60) APAP intoxication.
A separate group received the PEG400 vehicle 20 mins prior to AAP. […] Vehicle control mice (n=10) received sequential injections of PEG400 (i.p. followed by oral). At several times post-AAP administration (2, 6, 24, 48 and 168 hrs), groups of mice were anesthetized in a carbon dioxide chamber and heparinized blood samples were collected. Samples were centrifuged and resulting serum was retained for analyses (see below). Livers were also excised, weighed and tissue samples were collected for histopathological evaluation. Remaining tissue was snap frozen in liquid nitrogen. Hepatotoxicity was determined by quantification of serum alanine aminotransferase (ALT) and aspartate aminotransferase (AST) using colorimetric assays. Serum lactate dehydrogenase (LDH) was also measured as an index of generalized AAP-induced organ toxicity. To evaluate the extent of cellular oxidative stress in liver homogenates, the unsaturated aldehyde by-products of lipid peroxidation, HNE and malondialdhyde (MDA), were determined according to a modification of the Gerard-Monnier et al. method^27. In addition, soluble thiol contents were measured in homogenates according to LoPachin et al.^44.

MN9D cells [7] = details: cited from earlier work
[8] = Protection against pBQ-induced thiol loss (in chemico); type: biochemical; details: 50 μM
From the text: as §1

rat liver = assay: Acute ischemia-reperfusion injury of rat liver; type: in vivo, rats
Description: FIG. 9. Effect of 2-ACP on liver ischemia. 2-ACP (2.40 mmol/kg) or vehicle was injected i.p. 10 mins before clamping the portal vasculature for 45 mins. At the completion of the Ischemic phase, clamps were removed and the liver was reperfused for 180 mins. Following reperfusion, blood samples were removed for analysis of liver enzymes (ALT, AST) and LDH in plasma. Joining lines indicate statistically significant differences in treatment groups at ***P<0.001 level of significance.
FIG. 10. Effect of 2-ACP on liver reperfusion. 2-ACP (2.40 mmol/kg) or vehicle was injected i.p. 10 mins before restoration of hepatic circulation (reperfusion phase). At the completion of reperfusion, blood samples were removed for analysis of liver enzymes (ALT, AST) and LDH (a general enzyme indicator of tissue injury) in plasma. Joining lines indicate statistically significant differences in treatment groups at ***P<0.001 level of significance.
FIG. 11. […] At the completion of reperfusion, blood samples were removed for analysis of liver enzymes (ALT, AST) and LDH (a general enzyme indicator of tissue injury) in plasma. Joining lines indicate statistically significant differences in treatment groups at ***P<0.001 level of significance.
IR injury is the pathophysiological basis for stroke, myocardial infarction and other organ failure. It is also an underlying cause of allograft rejection following tissue transplantation. To investigate the possibility that 2-ACP and other nucleophilic dicarbonyl derivatives might be useful in preventing IR-mediated organ damage, rats were anesthetized and I/R was induced by clamping the portal vein and hepatic artery using commercially available microclips placed at the porta hepatis. The ischemic state was maintained for 45 mins, which affected approximately 70% of the liver mass. Following removal of the microclamps, hepatic reperfusion was maintained for 180 min. Animals were then sacrificed and plasma samples were taken for subsequent analysis of lactate dehydrogenase (LDH; a general enzyme indicator of cell injury) and liver enzymes (AST and ALT). […] A sham group (laparotomy only) provided baseline data for the appearance of liver enzyme in plasma. […] This level of hepatocyte leakage indicates substantial irreversible cell injury. […] Thus, prior 2-ACP administration is able to diminish the pathophysiological disposition of the ischemic phase. Further, amelioration of the ischemic phase truncates subsequent culmination of hepatocyte injury during reperfusion. To determine whether hepatoprotection was phase-specific and dose-dependent, 2-ACP (1.20-2.40 mmol/kg) was injected i.p. 10 mins prior to the restoration of hepatic circulation (reperfusion phase).

[9] = in chemico; cited from earlier work
[10] = i.p. 2.40 mmol/kg 10 mins before ischemia (45 min), reperfusion 180 min
[11] = i.p. 10 mins before reperfusion, 2-ACP 1.20-2.40 mmol/kg, equimolar NAC

SMILES: CC1(C)OC(=O)CC(=O)O1 [MA, Meldrum's acid]
- prevention of NAPQI-induced thiol loss [1]: ineffective
- effect on rate of acrolein-induced sulfhydryl (thiol) loss [2]: substantially slowed
- change in acrolein IC50 for synaptosomal DA transport inhibition [3]: more modest

SMILES: CC(C)(C)C1=CC(=O)C=CC1=O [tBQ, tert-butylquinone]
- Log IC50 [4]: 1.24

SMILES: CC(=O)C1CCCC1=O (stereo not shown) [2-ACP, 2-acetylcyclopentanone]
- thiol protection against NAPQI over concentration range ([1]; 2-ACP 25-200 μM, NAPQI 2-128 μM): provides thiol protection over a broad range of concentrations
- prevention of NAPQI-induced thiol loss [1]: three-fold increase in the respective IC50 value
- % Anion (pH = 7.4) [5]: 28.5%
- fraction present as nucleophilic enolate/thiolate anion [5]: ~30%
- effect on rate of acrolein-induced sulfhydryl (thiol) loss [2]: completely prevented
- protection from acrolein-induced cell loss (MN9D cells [6]): completely prevented
- changes in hepatic parameters, compound alone (male C57 BL mice): neither NAC nor ACP alone caused significant changes
- protection from APAP-induced lethality (survival) (male C57 BL mice; i.p. 2.40 mmol/kg, 20 min after (+20) APAP): complete protection
- protection from APAP-induced lethality (survival) (male C57 BL mice; i.p. 2.40 mmol/kg, 20 min before oral APAP 500 mg/kg, 7 day period): completely prevented APAP lethality; also recorded: complete protection
- protection from APAP-induced lethality (survival) (male C57 BL mice; i.p. 2.40 mmol/kg, 60 min after (+60) APAP): ineffective
- biochemical indices of hepatocyte death (plasma ALT, AST, LDH) and oxidative stress (liver thiol loss, unsaturated aldehyde content) (male C57 BL mice; i.p. pretreatment, oral APAP): prevented APAP-induced liver cell death
- histopathology: liver centrilobular necrosis (male C57 BL mice; i.p. pretreatment, oral APAP): prevented the liver centrilobular necrosis
- dose-dependency of protection from APAP-induced lethality (male C57 BL mice; i.p. pretreatment, 2-ACP 0.80-2.40 mmol/kg, NAC 4.80-7.20 mmol/kg): dose-dependent, although it occurred over a narrow dose-range
- oral hepatoprotection at increased dose (male C57 BL mice; oral 4.80 mmol/kg): improved oral 2-ACP hepatoprotection
- protection from APAP-induced lethality (survival) (male C57 BL mice; oral gavage 2.40 mmol/kg, 20 min before oral APAP): modest improvements in APAP survival rate
- oral hepatoprotection with buffered gavage solution (male C57 BL mice; oral, HEPES buffer pH 9.0): improved oral 2-ACP hepatoprotection
- change in acrolein IC50 for synaptosomal DA transport inhibition [3]: largest increases
- protection against H2O2-induced cell death (MN9D cells [7]): completely prevented cell death
- protection of thiol loss induced by pBQ [8]: effective
- plasma liver enzymes (ALT, AST) and LDH after I/R (rat liver; [10]): considerable reductions in the plasma appearance of liver enzymes
- plasma liver enzymes (ALT, AST) and LDH after I/R (rat liver; [11]): substantial hepatocyte dose-dependent protection

SMILES: CCOC(=O)CC(=O)OCC [DEM, diethyl malonate]
- relative enolate concentration in solution [5]: < 0.1%
- thiol protection against acrolein-induced thiol loss [2]: significantly increased
- effect on rate of acrolein-induced sulfhydryl (thiol) loss [2]: Neither diethyl malonate (DEM; a β-diester) nor 2,5-hexanedione (HD), a γ or 1,4-diketone, affected the rate of sulfhydryl loss
- protection from acrolein-induced cell loss (MN9D cells [6]): neither DEM nor HD was effective
- change in acrolein IC50 for synaptosomal DA transport inhibition [3]: neither DEM nor HD significantly affected the acrolein IC50

SMILES: O=C1CCC(=O)C1 [CPD, 1,3-cyclopenanedione]
- prevention of NAPQI-induced thiol loss [1]: minimal thiol protection
- change in acrolein IC50 for synaptosomal DA transport inhibition [3]: relatively ineffective
- protection against H2O2-induced cell death (MN9D cells [7]): ineffective

SMILES: CC(=O)CCC(C)=O [HD, 2,5-hexanedione]
- effect on rate of acrolein-induced sulfhydryl (thiol) loss [2]: Neither diethyl malonate (DEM; a β-diester) nor 2,5-hexanedione (HD), a γ or 1,4-diketone, affected the rate of sulfhydryl loss
- protection from acrolein-induced cell loss (MN9D cells [6]): neither DEM nor HD was effective
- change in acrolein IC50 for synaptosomal DA transport inhibition [3]: neither DEM nor HD significantly affected the acrolein IC50
- protection against H2O2-induced cell death (MN9D cells [7]): ineffective

SMILES: COc1cc(/C=C/C(=O)CC(=O)/C=C/c2ccc(O)c(OC)c2)ccc1O [Curcumin, curcumin]
- pKa ([5]; Table 1, read-out: pKa): 7.8
- % Anion (pH = 7.4) [5]: 28.5%

SMILES: CC(=O)Nc1ccc(O)cc1 [APAP, N-acetyl-p-aminophenol]
- lethality of oral APAP overdose (male C57 BL mice; oral 500 mg/kg, mice, within 72 hrs): ~90%

SMILES: CCN1C(=O)C=CC1=O [NEM, N-ethylmaleimide]
- Log IC50 [4]: 1.23

SMILES: CC(=O)CC(=O)C(F)(F)F [TFPD, 1,1,1-trifluoro-2,4-pentanedione]
- relative enolate concentration in solution [5]: 99%
- pKa ([5]; read-out: pKa): 4.7
- thiol protection against acrolein-induced thiol loss [2]: did not increase
- effect on rate of acrolein-induced sulfhydryl (thiol) loss [2]: some thiol protection
- protection from acrolein-induced cell loss (MN9D cells [6]): moderately protective
- change in acrolein IC50 for synaptosomal DA transport inhibition [3]: relatively ineffective
- fold protection against H2O2-induced cytotoxicity (MN9D cells [7]): 3 fold

SMILES: CC(=O)N[C@@H](CS)C(=O)O [NAC, N-acetylcysteine]
- prevention of NAPQI-induced thiol loss [1]: only minimal protection
- pKa ([5]; Table 1, read-out: pKa): 9.5
- % Anion (pH = 7.4) [5]: 0.8%
- pKa ([5]; read-out: pKa): 9.6
- protection from acrolein-induced cell loss (MN9D cells [6]): completely prevented
- changes in hepatic parameters, compound alone (male C57 BL mice): neither NAC nor ACP alone caused significant changes
- change in acrolein IC50 for synaptosomal DA transport inhibition [3]: more modest
- protection against H2O2-induced cell death (MN9D cells [7]): significantly less efficacious
- plasma liver enzymes (ALT, AST) and LDH after I/R (rat liver; [10]): did not prevent I/R liver injury
- plasma liver enzymes (ALT, AST) and LDH after I/R (rat liver; [11]): did not prevent I/R liver injury

SMILES: O=C1C=CC(=O)C=C1 [pBQ, p-benzoquinone]
- Log IC50 [4]: 1.06

SMILES: CC(=O)N=C1C=CC(=O)C=C1 [NAPQI, N-acetyl-p-benzoquinone imine]
- Log IC50 [4]: 0.92
- IC50 ([4]; read-out: IC50 for NAPQI-induced GSH loss, NAPQI alone, NAPQI 2-128 μM, no protectant): 9.1 µM
- second order rate constant for reaction with cysteine sulfhydryl groups [9]: 32000 M⁻¹ s⁻¹

SMILES: N[C@@H](CCC(=O)N[C@@H](CS)C(=O)NCC(=O)O)C(=O)O [GSH, glutathione]
- pKa ([5]; Table 1, read-out: pKa): 8.6
- % Anion (pH = 7.4) [5]: 5.9%

SMILES: C=CC=O [Acrolein, acrolein]
- Log IC50 [4]: 1.72
- CC50 (MN9D cells [6]; read-out: LC50 (acrolein concentration producing 50% cell lethality), acrolein 50-150 μM): 96 µM

SMILES: CC(=O)CC(C)=O [AcAc, acetylacetone]
- prevention of NAPQI-induced thiol loss [1]: minimal thiol protection
- pKa [5]: 9.0
- thiol protection against acrolein-induced thiol loss [2]: virtually complete
- effect on rate of acrolein-induced sulfhydryl (thiol) loss [2]: substantially slowed
- protection from acrolein-induced cell loss (MN9D cells [6]): moderately protective

SMILES: CC1(C)CC(=O)CC(=O)C1 [DMD, dimedone]
- prevention of NAPQI-induced thiol loss [1]: ineffective
- pKa [5]: 5.3
- fraction present as nucleophilic enolate/thiolate anion [5]: 99%
- effect on rate of acrolein-induced sulfhydryl (thiol) loss [2]: substantially slowed
- change in acrolein IC50 for synaptosomal DA transport inhibition [3]: more modest
